Test results as given in US20130116298A1, “ANTITUMOR AGENT OR POSTOPERATIVE ADJUVANT CHEMOTHERAPEUTIC AGENT FOR HEPATOCELLULAR CARCINOMA TREATMENT” (TAIHO PHARMACEUTICAL CO., LTD., priority 2009, published 2013).

What was measured:
[1] = test system: hepatocellular carcinoma; test: Comparative clinical study of TSU-68 therapy in hepatocellular carcinoma patients treated with TACE; format: in vivo; conditions: for Median of progression-free survival: 200 mg orally twice daily, started within 2 weeks after TACE
Procedure: A comparative clinical study was conducted for the TSU-68 administration group and the TSU-68 non-administration group consisting of cases that were impossible to treat with hepatectomy and PAT and had been treated with TACE and excluding cases evaluated as Child-Pugh grade C in terms of hepatic functional reserve. The antitumor agent used for TACE was epirubicin.
The subject cases were randomly assigned to the TSU-68 administration group and the TSU-68 non-administration group. TSU-68 administration was initiated for cases assigned to the TSU-68 administration group within 2 weeks after TACE. TSU-68 was administered orally at a dose of 200 mg per administration twice daily after breakfast and dinner on consecutive days. No further treatment was given to the TSU-68 non-administration group after TACE and thus only follow-up observation was carried out.
Progression-free survival was defined as survival within the period from the day of TACE designated as the initial date of reckoning to any of dates on which the following events was observed, whichever came first.
1. Date on which the presence of progressive disease (hereinafter referred to as “PD”) was confirmed as a result of assessment of best overall response (date of testing). 2. Date on which a test subject died for any reason (date of death). 3. Date on which a test subject was assessed to have experienced clinically obvious deterioration of the disease or to be in need of post-TACE treatment even without confirmation of PD upon assessment of best overall response (date of assessment).
Best overall response was evaluated by measuring tumor diameters by CT and assaying tumor markers (AFP, PIVKA-II, and AFP-L3 fractions) according to New Guideline to Evaluate the Response to Treatment in Solid Tumor (hereinafter referred to as “RECIST”) (J Natl Cancer Inst 92: 205, 2000).

[2] = test system: various human cancer cell lines; conditions: oral administration alone; lung cancer, large bowel cancer, uterus cancer and the like; cited from earlier work
[3] = unresectable hepatocellular carcinoma patients; cited from earlier work
[4] = TACE-treated hepatocellular carcinoma patients of Child-Pugh grade A

Compound	Progression-free survival compared with the TSU-68 non-administration group ([1]; TACE-treated hepatocellular carcinoma patients)	Progression-free survival compared with the TSU-68 non-administration group [1, 4]	Median of progression-free survival [1, 4]	Severity of each adverse reaction ([1]; major adverse reactions: abdominal pain, ascites, edema, general fatigue, fever, feeling of sickness)	Median of progression-free survival ([1]; post-TACE hepatocellular carcinoma patients)	Antitumor effect (tumor growth) [2]	Increase of AST level in patients [3]	Increase of bilirubin level (corresponding to score 3 or more) in patients [3]
Cc1[nH]c(/C=C2\C(=O)Nc3ccccc32)c(C)c1CCC(=O)O [TSU-68, (Z)-5-[(1,2-dihydro-2-oxo-3H-indol-3-ylidene)methyl]2,4-dimethyl-1H-pyrrol-3-propanoic acid]	significantly extended	significantly extended	5.8 month	grade 1 or 2	5.2 month	effective for inhibiting tumor growth	–	–
CNC(=O)c1cc(Oc2ccc(NC(=O)Nc3ccc(Cl)c(C(F)(F)F)c3)cc2)ccn1 [sorafenib]	–	–	–	–	–	–	45%	32%
